≈ marks a conversion by molar mass, not a printed value. Entries after “also recorded” stand apart in the source; their conditions may differ. Structures can show the parent of a compound that is named as a salt.
Experiments:
[1] = test system: E. coli Neumann; assay: therapeutic efficacy: survival of female CF1 mice infected intraperitoneally with E. coli Neumann; type: in vivo; settings: for survival of the animals (number of 10 mice): single dose 30 min. after infection, until sixth day
Description: To measure the therapeutic efficacy, 10 female CF1 mice each group were infected by intraperitoneal injection of 3×10^7 cells of E. coli Neumann. For treatment, one single dose of drug was given intravenously 30 min. after the infection. The survival of the animals was recorded daily until the sixth day after infection: […]

[2] = stability of B in the presence of peptidases or human plasma; type: in vitro ADME; settings: not cleaved back to A
[3] = test system: E. coli Neumann; assay: minimal inhibitory concentrations (MICs) by agar dilution method; type: cell-based
Description: The minimal inhibitory concentrations (MICs) were determined by agar dilution method. Series of agar plates with Iso-Sensitest agar (Oxoid) were prepared which contained the test substances at twofold increasing concentrations. The agar plates were inoculated by using a multipoint inoculator (Denley). For this purpose, overnight cultures of the bacterial test strains were diluted appropriately so that each inoculation point contained approx. 10^4 cells. The inoculated agar plates were incubated at 37° C. and bacterial growth was read after 20 hours.

[4] = solubility in water and water containing solvents; settings: for solubility: water
[5] = stability of 4, 6 and 12 in mice plasma at 37° C.; type: in vitro ADME; settings: for hydrolysis to 1: mice plasma; for kobs / half-life: mice, heparin; for half-life: mouse, plasma
Description: (§1) A solution of approximately 2.0 mg of 4, 6 or 12 in 100 μl of water was added to 2 ml of either human or mice plasma. The resulting solution was placed in water bath at 37° C. Samples were withdrawn at appropriate time intervals and proteins were precipitated with 250 μl of acetonitrile, vortexed for 30 sec., then centrifuged for 10 min at 2200 rpm. […] Apparent first-order rate constants were obtained by plotting the disappearance the derivatives 4, 6 or 12 versus time on semilogarithmic plot and the results are shown in table 12.

[6] = stability of 4, 6 and 12 in human plasma at 37° C.; type: in vitro ADME; settings: for hydrolysis to 1: human plasma; for half-life: plasma
Description: as §1

[7] = stability of 4, 6 or 12 in aqueous buffered solutions (μ = 0.15); type: physicochemical
Description: The hydrolysis of 4, 6 or 12 in aqueous buffered solutions at various pH and at an ionic strength of 0.15 (NaCl) were measured by analyzing aliquots at appropriate intervals using HPLC. In the HPLC analysis both the disappearance of 4, 6 or 12 and the appearance of 1 were monitored. Rate constants were calculated from the first-order plots of the disappearance of 4, 6 or 12 versus time.

[8] = hydrolysis of 14 and 4a in human plasma at 37.0° C.; type: in vitro ADME
Description: (§2) The hydrolysis of 14 in human plasma was studied. A solution containing 2.0 mg of 14 in 200 μl of water was mixed with 2 ml of human plasma (sodium citrate was used as anticoagulant). The resulting mixture was placed in water bath at 37.0° C. Samples were withdrawn at appropriate time intervals and proteins were precipitated with 250 μl of acetonitrile, vortexed for 30 sec, the centrifuged for 15 min at 2200 rpm. A 100 μl sample of the supernatent was mixed with 250 μl of H2 O and the resulting solution was analyzed by HPLC. […] The chemical hydrolysis of 14 (5.5×10^-5 M) in 0.05M phosphate buffer pH 7.4 and ionic strength of 0.15M (NaCl) at 37.0° C. was studied. Samples were withdrawn and analyzed at appropriate time intervals.

[9] = chemical hydrolysis of 14 in 0.05M phosphate buffer pH 7.4 at 37.0° C.; type: physicochemical; settings: 5.5×10^-5 M, 0.05M phosphate pH 7.4, ionic strength 0.15M (NaCl)
Description: as §2

[10] = Acetate (0.05M), 25° C., pH 5.0, initial conc. 0.024 (4, 12), 0.018 (6) mg/ml
[11] = Phosphate (0.05M), 37° C., pH 7.4, initial conc. 0.02 mg/ml
[12] = acetate buffer (0.05m), pH 5, Acetate (0.05M), 25° C., pH 5.0, initial conc. 0.024 (4, 12), 0.018 (6) mg/ml, 6 and 12 estimated values (*)
[13] = phosphate buffer (0.05m), pH 7.4, Phosphate (0.05M), 25° C., pH 7.4, initial conc. 0.02 mg/ml, 4 estimated value (*)
[14] = phosphate buffer (0.05m), pH 7.4, Phosphate (0.05M), 37° C., pH 7.4, initial conc. 0.02 mg/ml
[15] = water, pH 4.5, Water, 25° C., initial conc. 10.0 mg/ml, pH 4.5 (4), 4.31 (6), 4.54 (12), estimated values (*)
[16] = water, pH 5.9, Water, 25° C., initial conc. 0.1 mg/ml, pH 5.9 (4), 5.46 (6), 6.1 (12), estimated values (*)
[17] = concentration of obtainable aqueous solutions, hydrochloric acid salts (Example 5)
[18] = Phosphate (0.05M), 25° C., pH 7.4, initial conc. 0.02 mg/ml
[19] = Water, 25° C., initial conc. 0.1 mg/ml, pH 5.46 (6), 6.1 (12)
[20] = Water, 25° C., initial conc. 10.0 mg/ml, pH 4.31 (6), 4.54 (12)

| SMILES | hydrolysis to 1 [5] | half-life [5] [h] | hydrolysis to 1 [6] | half-life [7, 12] [days] | half-life [7, 13] [days] | half-life [7, 14] [days] | half-life [7, 15] [days] | half-life [7, 16] [days] | kobs [5] [min⁻¹] | kobs [7, 10] [h⁻¹] | kobs [7, 11] [h⁻¹] | other results |
| --- | --- | --- | --- | --- | --- | --- | --- | --- | --- | --- | --- | --- |
| CC(N)C(=O)N1CCN(c2cc3c(cc2F)c(=O)c(C(=O)O)cn3C2CC2)CC1 (centres unmarked) [B] |  |  |  |  |  |  |  |  |  |  |  | survival of the animals (number of 10 mice) ([1]; 0.06 mg/kg i.v.): 0; survival of the animals (number of 10 mice) ([1]; 0.25 mg/kg i.v.): 1; survival of the animals (number of 10 mice) ([1]; 0.5 mg/kg i.v.): 1; effectiveness against E. coli Neumann in vivo ([1]; in words): only poorly effective; stability in the presence of peptidases or human plasma [2]: stable; MIC ([3]; Escherichia coli, E. coli Neumann, agar dilution, Iso-Sensitest agar, 37° C., 20 hours): 0.5 mg/L (≈ 1.24 µM); effectiveness against E. coli Neumann in vitro ([3]; in words): only poorly effective |
| Nc1ccc2c(c1)CN1C(=O)c3ccccc3C1=N2 [Compound 1, aminooxodihydroisoindoloquinazoline] |  |  |  |  |  |  |  |  |  |  |  | solubility in water (in words) ([4]; water containing solvents): only poorly soluble; also recorded: nearly insoluble |
| C[C@H](N)C(=O)Nc1ccc2c(c1)CN1C(=O)c3ccccc3C1=N2 [Compound 4a, N-l-alanyl-AQ] |  |  |  |  |  |  |  |  |  |  |  | half-life ([8]; human plasma, FIG. 1, 4a formed from 14): ~0.333 h |
| C[C@H](NC(=O)CN)C(=O)Nc1ccc2c(c1)CN1C(=O)c3ccccc3C1=N2 [Compound 14, L-Gly-Ala-derivative of AQ] |  |  |  |  |  |  |  |  |  |  |  | half-life ([8]; human plasma (citrate), 2.0 mg of 14 in 200 μl water + 2 ml plasma, read-out: half life of hydrolysis of 14 to 4a): 0.233 ± 0.0167 h; half-life at 55 µM [9]: 60 h |

Continued, in another order:

| hydrolysis to 1 [5] | half-life [5] [h] | hydrolysis to 1 [6] | half-life [7, 12] [days] | half-life [7, 13] [days] | half-life [7, 14] [days] | half-life [7, 15] [days] | half-life [7, 16] [days] | SMILES | kobs [5] [min⁻¹] | kobs [7, 10] [h⁻¹] | kobs [7, 11] [h⁻¹] | other results |
| --- | --- | --- | --- | --- | --- | --- | --- | --- | --- | --- | --- | --- |
| quantitative hydrolysis | 0.355 | quantitative hydrolysis | 17.8 | > 8.33 | 6.58 | > 20 | > 20 | C[C@H](N)C(=O)Nc1ccc2c(c1)CN1C(=O)c3ccccc3C1=N2 [Compound 4, N-l-alanyl-AQ-monohydrochloride] | 0.033 | 0.0016 | 0.0044 | kobs ([6]; human 1, citrate): 0.025 min⁻¹; kobs ([6]; human 2, citrate): 0.022 min⁻¹; half-life ([6]; human, human 1, citrate): 0.46 h; half-life ([6]; human, human 2, citrate): 0.512 h; solubility ([4]; solubility in water, hydrochloric acid salt, water (Example 5)): > 25 mg/mL |
| quantitative hydrolysis | 0.623 | quantitative hydrolysis | 26 | 7.03 | 3.36 | 198 | 47 | CC(C)C[C@H](N)C(=O)Nc1ccc2c(c1)CN1C(=O)c3ccccc3C1=N2 [Compound 6, N-l-leucine derivative of AQ] | 0.0185 | 0.0011 | 0.0086 | kobs ([6]; human, citrate): 0.0057 min⁻¹; half-life ([6]; human, citrate): 2.02 h; solubility [4, 17]: > 25 mg/mL; kobs [7, 18]: 0.00411 h⁻¹; kobs [7, 19]: 0.00061 h⁻¹; kobs [7, 20]: 0.000146 h⁻¹ |
| quantitative hydrolysis | 2.43 | quantitative hydrolysis | 25 | 11.2 | 2.8 | 108 | 37 | NCCCC[C@H](N)C(=O)Nc1ccc2c(c1)CN1C(=O)c3ccccc3C1=N2 [Compound 12, N-l-lysine dihydrochloride derivative of AQ] | 0.0048 | 0.00115 | 0.0103 | kobs ([6]; human, citrate): 0.005 min⁻¹; half-life ([6]; human, citrate): 2.31 h; solubility [4, 17]: > 25 mg/mL; solubility ([4]; water solubility, dihydrochloride, freeze dried (Example 3)): > 20 mg/mL; kobs [7, 18]: 0.00258 h⁻¹; kobs [7, 19]: 0.00078 h⁻¹; kobs [7, 20]: 0.000267 h⁻¹ |

— patent publication US4980343A, “Aminooxodihydroisoindoloquinazoline carcinostatic agents” (Bayer Aktiengesellschaft, priority 1989, dated 1990)
